Source: BindingDB's records for doi:10.1021/jm0492958 (Abbott Laboratories, 2005)

Tests used:
[1] = biological target: Transient receptor potential cation channel subfamily V member 1 (Homo sapiens, UniProt Q8NER1); assay: Ca2+ Influx Functional Assay for the Determination of in Vitro Activity.; conditions: pH 7.4; 22 °C
Description: (§1) The functional antagonist activity of compounds at the TRPV1 receptor was determined with a Ca2+ influx assay by measuring the effect on capsaicin (0.05 uM) evoked increase in intracellular Ca2+ levels using cells stably expressing recombinant human TRPV1. All compounds were tested over an 11-point half-log concentration range. The fluorescent Ca2+ chelating dye fluo-4 was used as an indicator of the relative levels of Ca2+ in a 96-well format using a fluorescence imaging plate reader. Fluorescence readings were made at 1-5 s intervals over the 240 s course of the experimental run. The peak increase in relative fluorescence units was calculated and expressed as a percentage of the 0.05 uM capsaicin (control) response. Curve fits of the data were solved using a four-parameter logistic Hill equation in GraphPad Prism, and IC50 values were calculated.

[2] = biological target: Transient receptor potential cation channel subfamily V member 1 (Rattus norvegicus, UniProt O35433); assay: as above; conditions: pH 7.4; 22 °C
Sequence of Transient receptor potential cation channel subfamily V member 1 (Rattus norvegicus, UniProt O35433) (O35433 whole entry): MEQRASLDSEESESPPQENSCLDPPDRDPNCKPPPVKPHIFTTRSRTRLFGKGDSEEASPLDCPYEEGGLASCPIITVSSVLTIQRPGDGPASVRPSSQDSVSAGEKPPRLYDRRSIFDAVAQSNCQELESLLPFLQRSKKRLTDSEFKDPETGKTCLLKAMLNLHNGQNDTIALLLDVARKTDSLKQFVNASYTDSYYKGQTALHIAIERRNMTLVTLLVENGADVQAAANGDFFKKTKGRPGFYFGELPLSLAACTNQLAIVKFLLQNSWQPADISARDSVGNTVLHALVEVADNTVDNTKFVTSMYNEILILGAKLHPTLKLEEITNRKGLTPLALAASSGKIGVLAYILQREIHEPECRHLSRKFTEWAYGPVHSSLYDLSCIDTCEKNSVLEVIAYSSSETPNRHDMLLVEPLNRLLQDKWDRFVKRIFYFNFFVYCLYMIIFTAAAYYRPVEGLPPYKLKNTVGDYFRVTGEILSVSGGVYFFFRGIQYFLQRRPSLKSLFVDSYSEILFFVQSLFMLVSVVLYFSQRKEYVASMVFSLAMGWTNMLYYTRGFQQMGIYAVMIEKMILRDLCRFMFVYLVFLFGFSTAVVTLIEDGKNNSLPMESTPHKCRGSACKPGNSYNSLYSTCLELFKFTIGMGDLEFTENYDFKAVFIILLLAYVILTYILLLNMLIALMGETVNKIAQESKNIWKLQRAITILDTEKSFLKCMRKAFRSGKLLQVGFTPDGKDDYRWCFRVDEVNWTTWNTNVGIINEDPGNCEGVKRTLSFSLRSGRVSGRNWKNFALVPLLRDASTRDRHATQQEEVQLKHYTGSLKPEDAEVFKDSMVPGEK
Description: as §1

Sequence of Transient receptor potential cation channel subfamily V member 1 (Homo sapiens, UniProt Q8NER1) (Q8NER1 whole entry): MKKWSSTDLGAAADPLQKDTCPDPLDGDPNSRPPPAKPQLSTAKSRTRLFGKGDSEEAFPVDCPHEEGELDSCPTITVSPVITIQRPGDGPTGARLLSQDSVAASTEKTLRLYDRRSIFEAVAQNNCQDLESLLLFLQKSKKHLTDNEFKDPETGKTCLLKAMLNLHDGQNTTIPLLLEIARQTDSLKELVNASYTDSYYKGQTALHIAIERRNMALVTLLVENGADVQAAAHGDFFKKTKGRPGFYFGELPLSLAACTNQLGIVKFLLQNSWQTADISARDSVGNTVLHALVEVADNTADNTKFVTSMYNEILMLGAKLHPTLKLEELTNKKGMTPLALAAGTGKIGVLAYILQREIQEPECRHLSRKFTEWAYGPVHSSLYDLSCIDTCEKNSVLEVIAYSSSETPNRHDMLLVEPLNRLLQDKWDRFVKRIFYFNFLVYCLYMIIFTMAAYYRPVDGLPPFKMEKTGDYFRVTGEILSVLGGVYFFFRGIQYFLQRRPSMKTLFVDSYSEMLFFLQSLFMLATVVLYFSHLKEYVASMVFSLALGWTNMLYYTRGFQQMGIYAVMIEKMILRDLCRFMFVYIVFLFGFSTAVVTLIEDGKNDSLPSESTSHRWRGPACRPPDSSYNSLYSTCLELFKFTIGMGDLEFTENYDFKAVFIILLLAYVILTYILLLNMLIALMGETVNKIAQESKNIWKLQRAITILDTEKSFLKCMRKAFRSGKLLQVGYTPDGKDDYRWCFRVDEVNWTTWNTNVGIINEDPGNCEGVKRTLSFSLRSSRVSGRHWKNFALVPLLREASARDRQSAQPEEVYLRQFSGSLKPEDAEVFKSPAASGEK

| SMILES | EC50 [1] [µM] | EC50 [2] [µM] |
| --- | --- | --- |
| O=C(NCCc1ccc(C(F)(F)F)cc1)Nc1cccc2cnccc12 | 0.019 |  |
| O=C(NCCc1cccc(C(F)(F)F)c1)Nc1cccc2cnccc12 | 0.02 |  |
| O=C(NCc1ccc(C(F)(F)F)cc1)Nc1cccc2cnccc12 [1-isoquinolin-5-yl-3-{[4-(trifluoromethyl)phenyl]methyl}urea] | 0.004 | 0.024 |
| CSc1cccc(NC(=O)Nc2cccc3ccc(O)cc23)c1 [3-(7-hydroxynaphthalen-1-yl)-1-[3-(methylsulfanyl)phenyl]urea] | 0.022 |  |
| O=C(NCc1cccc(C(F)(F)F)c1)Nc1cccc2cnccc12 [3-isoquinolin-5-yl-1-{[3-(trifluoromethyl)phenyl]methyl}urea] | 0.051 |  |
